Results taken from US4866063A, “Diol metabolites of 7-phenyl-1,2,4-triazolo[2,3-c]pyrimidines-5-amines” (priority 1988, dated 1989).
Entries after “also recorded” stand apart in the source; their conditions may differ. Where two headings read alike, the source gives them in different places.

Legend:
[1] = cited from earlier work
[2] = rat, in vivo
[3] = Cardiotoxicity of compounds I and II in rats
[4] = Metabolism of compound II in the rat; assay type: in vivo
[5] = Metabolism of compound II in man; assay type: in vivo
[6] = Water solubility compared with precursor compounds; assay type: physicochemical; conditions: vs compounds I and II
[7] = Plasma concentrations of compound III two hours after dosing on day 1; assay type: in vivo, female Charles River CD rats; conditions: for concentration at 2 h: rat, plasma, po, gavage, two hours after dosing on day 1
Protocol: (§1) Compound III was administered by gavage at 40 mg/kg, 80 mg/kg, 160 mg/kg and 320 mg/kg to female Charles River CD rats (10/dosage) once daily for three days. One additional group of rats received vehicle for three days to serve as controls. […] Additional groups of rats (3/dosage) were sacrificed two hours after dosing on day 1, blood collected, and samples analyzed to determine plasma concentrations of compound III.

heart or adrenal gland = experiment: Cardiotoxicity study of compound III in rats (gross and histologic examination, mortality); assay type: in vivo, female Charles River CD rats; conditions: conclusion of the study
Protocol: as §1

[8] = Bioavailability compared with precursor compounds; assay type: in vivo; conditions: vs compounds I and II

Structure (SMILES)	Glomerular filtration rate ([1]; acute, mammals)	Renal blood flow ([1]; acute, mammals)	Glomerular filtration rate ([1]; chronic oral dosing)	Renal blood flow ([1]; chronic oral dosing)	Sodium excretion ([1]; chronic oral dosing)	Myocardial lesions and associated changes [2]	Cardiotoxicity [3]	Aliphatic hydroxylation (metabolism) [4]	Aliphatic hydroxylation (similar metabolism) [5]	Water solubility relative to either precursor compound [6]	Plasma concentrations relative to those expected at cardiotoxic dosages of compounds I and II ([7]; 40-320 mg/kg)	concentration at 2 h ([7]; 40 mg/kg) [ng/mL]	concentration at 2 h ([7]; 80 mg/kg) [ng/mL]	concentration at 2 h ([7]; 160 mg/kg) [ng/mL]	concentration at 2 h ([7]; 320 mg/kg) [ng/mL]	Cardiotoxicity (heart or adrenal gland)	Bioavailability relative to either precursor compound [8]
CCOCCc1c(-c2ccccc2)nc(N)n2ncnc12 [compound I, 8-(2-ethoxyethyl)-7-phenyl-1,2,4-triazolo[2,3-c]pyrimidine-5-amine]	increases	increases	significant increases	significant increases	significant increases	myocardial lesions and associated changes found in rats	cardiotoxicity seen	–	–	–	–	–	–	–	–	–	–
Nc1nc(-c2ccccc2)c(CCO)c2ncnn12 [compound II, 8-(2-hydroxyethyl)-7-phenyl 1,2,4-triazolo[2,3-c]pyrimidine-5-amine]	–	–	–	–	–	myocardial lesions and associated changes found in rats	cardiotoxicity seen	undergoes aliphatic hydroxylation in the rat	not seen in man	–	–	–	–	–	–	–	–
Nc1nc(-c2ccccc2)c(C(O)CO)c2ncnn12 (stereo not shown) [compound III, 8-(1,2-dihydroxyethyl)-7-phenyl-1,2,4-triazolo[2,3-c]pyrimidine-5-amine]	–	–	–	–	–	–	–	–	–	more water soluble	well in excess of the concentrations that one might expect to see at cardiotoxic dosages of compounds I and II	13800	19800	36700	47000	does not appear to be cardiotoxic; also recorded: no incidence of cardiotoxic side effects in rats	more bioavailable
